Data reported in patent publication US11174264B2, “TYK2 inhibitors and uses thereof” (Nimbus Lakshmi, Inc., priority 2019, dated 2021).

Columns and labels:
JAK3 kinase domain = JAK3 kinase domain (Homo sapiens (Human), UniProt P52333); test: JAK3 Radioactive Kinase Assay; format: biochemical; details: 10 μM compound; for inhibition at 10 µM: read-out: JAK3_IC50_RB (% INH_@_10 uM) at 10.0 uM [% INH]
Description: (§1) Similar assays were run to measure the percent inhibition at the JAK1 and JAK3 kinase domains.

JAK1 kinase domain = JAK1 kinase domain (Homo sapiens (Human), UniProt P23458); test: JAK1 Radioactive Kinase Assay; format: biochemical; details: 10 μM compound; for inhibition at 10 µM: read-out: JAK1_IC50_RB (% INH_@_10 uM) at 10.0 uM [% INH]
Description: as §1

[1] = system: IL-12 induced STAT4 phophorylation mediated by Tyk2/JAK2 (heterodimeric complex); test: IL-12 Induced pSTAT4 in Human PBMC; format: cell-based; details: for IC50: 1.7 ng/mL IL-12, read-out: PBMC_IL-12-pSTAT4 (IC50); for inhibition at 0.05 µM: Homo sapiens, PBMC, 1.7 ng/mL IL-12, read-out: PBMC_IL-12-pSTAT4 (% Inhibition_Average_@0.05 uM) [%]
Method: Human PBMC are isolated from buffy coat and are stored frozen for assays as needed. […] 15 μl of compound or DMSO is added to the well at the desired concentrations and incubated at 1 hr at 37° C. 15 μl of stimulus (final concentration of 1.7 ng/mL IL-12) is added for 30 minutes prior to pSTAT4 and total STAT4 analysis using cell lysates prepared and analyzed by MSD reagents as per manufacturer protocol. The final DMSO concentration of compound in the assay is 0.1%.
The IL-12 Induced pSTAT4 assay evaluates the inhibition of IL-12 induced STAT4 phophorylation mediated by Tyk2/JAK2 (heterodimeric complex).

JAK2 kinase domain (JH1) = JAK2 kinase domain (JH1) (Homo sapiens (Human), UniProt O60674); test: JAK2 Radioactive Kinase Assay; format: biochemical; details: 10 μM compound, ATP at 10 μM; for inhibition at 10 µM: read-out: JAK2_IC50_RB (% INH_@_10 uM) at 10.0 uM [% INH]
Method: (§2) The Tyk2 and JAK2 radioactive kinase assay measures the percent inhibition at the Tyk2 kinase domain (JH1) and the percent inhibition at the JAK2 kinase domain (JH1). Results of the assay are expressed as percent inhibition at 10 μM.

[2] = molecular target: human TYK2 (JH2domain-pseudokinase) (Homo sapiens (Human), UniProt P29597); test: TYK2 JH2 Domain Binding Assay (KINOMEscan); details: read-out: hTYK2_JH2_Binding (Kd)
Method: Binding constants for compounds of the present invention against the JH2 domain were determined by the following protocol for a KINOMEscan® assay (DiscoveRx). A fusion protein of a partial length construct of human TYK2 (JH2domain-pseudokinase) (amino acids G556 to D888 based on reference sequence NP_003322.3) and the DNA binding domain of NFkB was expressed in transiently transfected HEK293 cells. From these HEK 293 cells, extracts were prepared in M-PER extraction buffer (Pierce) in the presence of Protease Inhibitor Cocktail Complete (Roche) and Phosphatase Inhibitor Cocktail Set II (Merck) per manufacturers' instructions. The TYK2 (JH2domain-pseudokinase) fusion protein was labeled with a chimeric double-stranded DNA tag containing the NFkB binding site (5′-[…]-3′) fused to an amplicon for qPCR readout, which was added directly to the expression extract (the final concentration of DNA-tag in the binding reaction is 0.1 nM).
The liganded beads were blocked with excess biotin and washed with blocking buffer (SeaBlock (Pierce), 1% BSA, 0.05% Tween 20, 1 mM DTT) to remove unbound ligand and to reduce nonspecific binding.
Extracts were used directly in binding assays without any enzyme purification steps at a ≥10,000-fold overall stock dilution (final DNA-tagged enzyme concentration <0.1 nM). Extracts were loaded with DNA-tag and diluted into the binding reaction in a two step process. First extracts were diluted 1:100 in 1× binding buffer (PBS/0.05% Tween 20/10 mM DTT/0.1% BSA/2 μg/ml sonicated salmon sperm DNA) containing 10 nM DNA-tag. This dilution was allowed to equilibrate at room temperature for 15 minutes and then subsequently diluted 1:100 in 1× binding buffer. […] Kds were determined using an 11-point 3-fold compound dilution series with three DMSO control points. […] The compounds were then diluted directly into the assays such that the final concentration of DMSO was 0.9%. All reactions performed in polypropylene 384-well plates. Each was a final volume of 0.02 mL. Assays were incubated with shaking for 1 hour at room temperature. Then the beads were pelleted and washed with wash buffer (1×PBS, 0.05% Tween 20) to remove displaced kinase and test compound. […] The qPCR protocol consisted of a 10 minute hot start at 95° C., followed by 35 cycles of 95° C. for 15 seconds, 60° C. for 1 minute.
The compounds were then diluted directly into the assays such that the final concentration of DMSO was 0.9%. […] Kd measurements were performed in duplicate.
Binding constants (Kd values) were calculated with a standard dose-response curve using the Hill equation: […]
The Hill Slope was set to −1.

Tyk2 kinase domain (JH1) = Tyk2 kinase domain (JH1) (Homo sapiens (Human), UniProt P29597); test: Tyk2 Radioactive Kinase Assay; format: biochemical; details: 10 μM compound, ATP at 10 μM; read-out: TYK2_IC50_RB (% INH_@_10 uM) at 10.0 uM [% INH]
Method: as §2

Sequence of JAK3 kinase domain (P52333 822-1111): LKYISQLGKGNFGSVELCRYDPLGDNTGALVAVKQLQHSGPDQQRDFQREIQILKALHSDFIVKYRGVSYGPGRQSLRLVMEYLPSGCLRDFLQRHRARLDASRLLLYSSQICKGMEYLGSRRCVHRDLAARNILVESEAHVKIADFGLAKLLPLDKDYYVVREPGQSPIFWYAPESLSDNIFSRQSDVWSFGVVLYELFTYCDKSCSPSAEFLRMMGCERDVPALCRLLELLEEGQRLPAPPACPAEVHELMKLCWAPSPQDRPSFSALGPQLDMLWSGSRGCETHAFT
Sequence of JAK2 kinase domain (JH1) (O60674 849-1124): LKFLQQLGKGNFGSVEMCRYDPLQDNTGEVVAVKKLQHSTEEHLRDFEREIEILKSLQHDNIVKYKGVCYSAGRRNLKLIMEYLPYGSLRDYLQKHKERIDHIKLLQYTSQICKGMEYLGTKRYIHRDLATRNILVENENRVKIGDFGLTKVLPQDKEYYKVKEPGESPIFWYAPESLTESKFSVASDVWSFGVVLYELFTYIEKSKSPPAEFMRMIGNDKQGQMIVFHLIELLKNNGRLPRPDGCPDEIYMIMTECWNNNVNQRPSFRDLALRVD
Sequence of JAK1 kinase domain (P23458 875-1153): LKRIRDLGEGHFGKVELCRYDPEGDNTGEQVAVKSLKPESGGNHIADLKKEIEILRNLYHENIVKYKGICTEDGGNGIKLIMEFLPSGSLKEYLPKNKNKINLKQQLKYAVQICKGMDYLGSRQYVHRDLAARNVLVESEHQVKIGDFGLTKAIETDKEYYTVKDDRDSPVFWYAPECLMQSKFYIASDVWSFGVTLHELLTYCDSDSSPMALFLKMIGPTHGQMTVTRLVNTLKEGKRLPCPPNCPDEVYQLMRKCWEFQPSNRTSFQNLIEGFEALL
Sequence of human TYK2 (JH2domain-pseudokinase) (P29597 556-888): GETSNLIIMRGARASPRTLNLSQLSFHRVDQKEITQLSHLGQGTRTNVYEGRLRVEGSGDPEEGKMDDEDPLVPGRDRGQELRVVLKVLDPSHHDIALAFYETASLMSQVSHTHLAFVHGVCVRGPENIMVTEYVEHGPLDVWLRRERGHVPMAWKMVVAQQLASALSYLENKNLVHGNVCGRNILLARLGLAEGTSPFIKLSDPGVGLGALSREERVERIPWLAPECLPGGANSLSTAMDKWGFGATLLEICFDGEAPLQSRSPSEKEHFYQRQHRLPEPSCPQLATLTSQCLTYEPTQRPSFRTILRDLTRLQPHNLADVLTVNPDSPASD
Sequence of Tyk2 kinase domain (JH1) (P29597 897-1176): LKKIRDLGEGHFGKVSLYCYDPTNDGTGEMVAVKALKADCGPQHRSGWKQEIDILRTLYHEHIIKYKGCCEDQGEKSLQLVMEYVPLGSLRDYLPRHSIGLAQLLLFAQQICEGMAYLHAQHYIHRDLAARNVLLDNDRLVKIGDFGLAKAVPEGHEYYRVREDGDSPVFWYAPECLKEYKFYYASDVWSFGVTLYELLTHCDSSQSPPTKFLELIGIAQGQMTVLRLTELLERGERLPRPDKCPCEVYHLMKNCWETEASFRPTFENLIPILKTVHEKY

CNc1cc(-c2cn(C(C)C)c3ncccc23)nn2c(C(=O)N[C@H]3CC[C@H]3O)cnc12 (racemic) [Compound I-15, N-(2-hydroxycyclobutyl)-6-(1-isopropyl-1H-pyrrolo[2,3-b]pyridin-3-yl)-8-(methylamino)imidazo[1,2-b]pyridazine-3-carboxamide]
JAK3_IC50_RB (% INH_@_10 uM) at 10.0 uM [% INH] (JAK3 kinase domain): A (had a percent inhibition at 10 μM lower than 50)
JAK1_IC50_RB (% INH_@_10 uM) at 10.0 uM [% INH] (JAK1 kinase domain): A (had a percent inhibition at 10 μM lower than 50)
IC50 [1]: < 100 nM
PBMC_IL-12-pSTAT4 (% Inhibition_Average_@0.05 uM) [%] ([1]; 0.05 μM compound, 1.7 ng/mL IL-12): ** (had a percent inhibition at 0.05 μM between 50 and 70)
JAK2_IC50_RB (% INH_@_10 uM) at 10.0 uM [% INH] (JAK2 kinase domain (JH1)): A (had a percent inhibition at 10 μM lower than 50)
Kd [2]: < 0.2 nM

CNc1cc(Nc2cccn([C@H]3CC[C@H](OC)CC3)c2=O)nn2c(C(=O)N[C@H]3CC[C@@H]3OC)cnc12 (racemic) [Compound I-21, N-(2-methoxycyclobutyl)-6-((1-((1r,4S)-4-methoxycyclohexyl)-2-oxo-1,2-dihydropyridin-3-yl)amino)-8-(methylamino)imidazo[1,2-b]pyridazine-3-carboxamide]
IC50 [1]: < 100 nM
inhibition at 0.05 µM ([1]; 0.05 μM compound): > 90%
Kd [2]: < 0.2 nM

CNc1cc(Nc2cccn([C@H]3[C@@H]4COC[C@@H]43)c2=O)nn2c(C(=O)N[C@H]3CC[C@@H]3OC)cnc12 (racemic) [Compound I-22, 6-((1-((1R,5S,6r)-3-oxabicyclo[3.1.0]hexan-6-yl)-2-oxo-1,2-dihydropyridin-3-yl)amino)-N-(2-methoxycyclobutyl)-8-(methylamino)imidazo[1,2-b]pyridazine-3-carboxamide]
IC50 [1]: < 100 nM
inhibition at 0.05 µM ([1]; 0.05 μM compound): 70 to 90%
Kd [2]: < 0.2 nM

CNc1cc(Nc2cccn([C@H]3C[C@H](OC)C3)c2=O)nn2c(C(=O)N[C@H]3CC[C@@H]3OC)cnc12 (racemic) [Compound I-23, N-((1S,2S)-2-methoxycyclobutyl)-6-((1-((1r,3S)-3-methoxycyclobutyl)-2-oxo-1,2-dihydropyridin-3-yl)amino)-8-(methylamino)imidazo[1,2-b]pyridazine-3-carboxamide]
IC50 [1]: < 100 nM
inhibition at 0.05 µM ([1]; 0.05 μM compound): 70 to 90%
Kd [2]: < 0.2 nM

CNc1cc(Nc2cccn(-c3ncccc3F)c2=O)nn2c(C(=O)N[C@H]3CC[C@@H]3OC)cnc12 (stereo in doubt) [Compound I-17, 6-((3′-fluoro-2-oxo-2H-[1,2′-bipyridin]-3-yl)amino)-N-(2-methoxycyclobutyl)-8-(methylamino)imidazo[1,2-b]pyridazine-3-carboxamide]
IC50 [1]: < 100 nM
inhibition at 0.05 µM ([1]; 0.05 μM compound): 50 to 70%
Kd [2]: < 0.2 nM

CNc1cc(Nc2cccn(-c3ccccn3)c2=O)nn2c(C(=O)N[C@H]3CC[C@@H]3OC)cnc12 (stereo in doubt) [Compound I-18, N-(2-methoxycyclobutyl)-8-(methylamino)-6-((2-oxo-2H-[1,2′-bipyridin]-3-yl)amino)imidazo[1,2-b]pyridazine-3-carboxamide]
IC50 [1]: < 100 nM
inhibition at 0.05 µM ([1]; 0.05 μM compound): 70 to 90%
Kd [2]: < 0.2 nM

CNc1cc(Nc2cccn(-c3ccc(C)nc3)c2=O)nn2c(C(=O)N[C@H]3CC[C@@H]3OC)cnc12 (stereo in doubt) [Compound I-19, N-(2-methoxycyclobutyl)-6-((6′-methyl-2-oxo-2H-[1,3′-bipyridin]-3-yl)amino)-8-(methylamino)imidazo[1,2-b]pyridazine-3-carboxamide]
IC50 [1]: < 100 nM
inhibition at 0.05 µM ([1]; 0.05 μM compound): 50 to 70%
Kd [2]: < 0.2 nM

CNc1cc(Nc2cccn(C3CCOCC3)c2=O)nn2c(C(=O)N[C@H]3CC[C@@H]3OC)cnc12 (stereo in doubt) [Compound I-20, N-(2-methoxycyclobutyl)-8-(methylamino)-6-((2-oxo-1-(tetrahydro-2H-pyran-4-yl)-1,2-dihydropyridin-3-yl)amino)imidazo[1,2-b]pyridazine-3-carboxamide]
IC50 [1]: < 100 nM
inhibition at 0.05 µM ([1]; 0.05 μM compound): 70 to 90%
Kd [2]: < 0.2 nM

CNc1cc(-c2cn(C(C)C)c3ncccc23)nn2c(C(=O)N[C@@H]3CC[C@@H]3O)cnc12 [Compound I-7, N-((1R,2S)-2-hydroxycyclobutyl)-6-(1-isopropyl-1H-pyrrolo[2,3-b]pyridin-3-yl)-8-(methylamino)imidazo[1,2-b]pyridazine-3-carboxamide]
inhibition at 10 µM (JAK3 kinase domain): < 50%
inhibition at 10 µM (JAK1 kinase domain): < 50%
inhibition at 10 µM (Tyk2 kinase domain (JH1)): < 50%
inhibition at 10 µM (JAK2 kinase domain (JH1)): < 50%
Kd [2]: < 0.2 nM

CNc1cc(-c2cn(C3CCOCC3)c3ncccc23)nn2c(C(=O)N[C@@H]3CC[C@@H]3O)cnc12 [Compound I-8, N-((1R,2S)-2-hydroxycyclobutyl)-8-(methylamino)-6-(1-(tetrahydro-2H-pyran-4-yl)-1H-pyrrolo[2,3-b]pyridin-3-yl)imidazo[1,2-b]pyridazine-3-carboxamide]
Kd [2]: < 0.2 nM

CNc1cc(-c2cn(CCN3CCOCC3)c3ncccc23)nn2c(C(=O)N[C@@H]3CC[C@@H]3O)cnc12 [Compound I-9, N-((1R,2S)-2-hydroxycyclobutyl)-8-(methylamino)-6-(1-(2-morpholinoethyl)-1H-pyrrol[2,3-b]pyridin-3-yl)imidazo[1,2-b]pyridazine-3-carboxamide]
inhibition at 10 µM (JAK3 kinase domain): < 50%
inhibition at 10 µM (JAK1 kinase domain): < 50%
inhibition at 10 µM (JAK2 kinase domain (JH1)): < 50%
Kd [2]: 0.2 to 1 nM

CNc1cc(-c2cn(C3CCOCC3)c3ncccc23)nn2c(C(=O)N[C@H]3CC[C@H]3O)cnc12 [Compound I-11, N-((1S,2R)-2-hydroxycyclobutyl)-8-(methylamino)-6-(1-(tetrahydro-2H-pyran-4-yl)-1H-pyrrolo[2,3-b]pyridin-3-yl)imidazo[1,2-b]pyridazine-3-carboxamide]
inhibition at 0.05 µM ([1]; 0.05 μM compound): 70 to 90%
Kd [2]: < 0.2 nM

CNc1cc(-c2cn(C(C)C)c3ncccc23)nn2c(C(=O)N[C@@H]3COC[C@@H]3O)cnc12 [Compound I-13, N-((3R,4R)-4-hydroxytetrahydrofuran-3-yl)-6-(1-isopropyl-1H-pyrrolo[2,3-b]pyridin-3-yl)-8-(methylamino)imidazo[1,2-b]pyridazine-3-carboxamide]
Kd [2]: 0.2 to 1 nM

CNc1cc(-c2cn(C(C)C)c3ncccc23)nn2c(C(=O)N[C@H]3COC[C@H]3O)cnc12 [Compound I-14, N-((3S,4S)-4-hydroxytetrahydrofuran-3-yl)-6-(1-isopropyl-1H-pyrrolo[2,3-b]pyridin-3-yl)-8-(methylamino)imidazo[1,2-b]pyridazine-3-carboxamide]
inhibition at 0.05 µM ([1]; 0.05 μM compound): 70 to 90%
Kd [2]: < 0.2 nM
